Measured values published in ChEMBL document CHEMBL1201862, “PubChem BioAssay data set” (2004).
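Following 48 hours of exposure in 96-well plates, responses at five concentrations were used to interpolate endpoints linearly. Abbreviation: GI50, concentration required for 50% inhibition of growth.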 The source made the active and inactive calls. Rule as the data show it: active = GI50 up to about 1.1 µM and inactive = higher.

Experiments:
Experiment in all cases: DTP human tumour cell line panel, 48 h
A549 = system: A549
ACHN = system: ACHN
CAKI-1 = system: CAKI-1
HOP-62 = system: HOP-62
M14 = system: M14
MDA-MB-435 = system: MDA-MB-435
MDA-N = system: MDA-N
Malme-3M = system: Malme-3M
OVCAR-5 = system: OVCAR-5
PC-3 = system: PC-3
RPMI-8226 = system: RPMI-8226
RXF 393 = system: RXF 393
SN12C = system: SN12C
SNB-19 = system: SNB-19
SNB-75 = system: SNB-75
SW-620 = system: SW-620
U-251 = system: U-251
UACC-257 = system: UACC-257
SK-MEL-2 = system: SK-MEL-2
SR = system: SR

Measured: GI50

Cc1c(Cl)c(S(N)(=O)=O)cc(S(N)(=O)=O)c1NC(=O)c1ccc(Cl)cc1
inactive: A549 > 100 µM | ACHN > 100 µM | CAKI-1 > 100 µM | HOP-62 > 100 µM | M14 > 100 µM | MDA-MB-435 > 100 µM | MDA-N > 100 µM | Malme-3M > 100 µM | OVCAR-5 > 100 µM | PC-3 > 100 µM | RPMI-8226 > 100 µM | RXF 393 > 100 µM | SN12C > 100 µM | SNB-19 > 100 µM | SNB-75 > 100 µM | SW-620 > 100 µM | U-251 > 100 µM | UACC-257 > 100 µM

O=C1NC(=S)N/C1=C\c1cccs1
inactive: A549 > 100 µM | CAKI-1 > 100 µM | HOP-62 > 100 µM | M14 > 100 µM | MDA-MB-435 > 100 µM | MDA-N > 100 µM | Malme-3M > 100 µM | OVCAR-5 > 100 µM | PC-3 > 100 µM | RPMI-8226 > 100 µM | RXF 393 > 100 µM | SK-MEL-2 > 100 µM | SN12C > 100 µM | SNB-19 > 100 µM | SNB-75 > 100 µM | SW-620 > 100 µM | U-251 > 100 µM

O=P(c1ccccc1)(c1ccccc1)C(NCc1ccccc1)c1ccc(F)cc1 (centres undefined)
inactive: A549 15 µM | ACHN 13.8 µM | CAKI-1 17 µM | HOP-62 21.6 µM | M14 14.7 µM | MDA-MB-435 8.41 µM | MDA-N 17.1 µM | Malme-3M 17.9 µM | RPMI-8226 25.9 µM | RXF 393 13.4 µM | SK-MEL-2 15 µM | SN12C 17.9 µM | SNB-19 17.9 µM | SNB-75 23.8 µM | SR 15 µM | SW-620 18.5 µM | U-251 15.6 µM | UACC-257 18 µM

CC1CC/C(=C\c2ccc(F)cc2)C2=C1C(c1ccc(F)cc1)n1c(s/c(=C\c3ccc(Cl)cc3)c1=O)=N2 (centres undefined)
inactive: A549 > 100 µM | ACHN > 100 µM | CAKI-1 > 100 µM | HOP-62 > 100 µM | M14 > 100 µM | MDA-MB-435 > 100 µM | MDA-N > 100 µM | OVCAR-5 > 100 µM | PC-3 > 100 µM | RPMI-8226 > 100 µM | RXF 393 > 100 µM | SK-MEL-2 > 100 µM | SN12C > 100 µM | SNB-19 > 100 µM | SW-620 > 100 µM | U-251 > 100 µM | UACC-257 > 100 µM

CC(=O)C1(/N=N/c2ccc(S(N)(=O)=O)cc2)CCOC1=O (centres undefined)
inactive: A549 > 100 µM | ACHN > 100 µM | CAKI-1 > 100 µM | HOP-62 > 100 µM | M14 > 100 µM | MDA-MB-435 > 100 µM | MDA-N > 100 µM | Malme-3M > 100 µM | OVCAR-5 > 100 µM | PC-3 > 100 µM | RXF 393 > 100 µM | SK-MEL-2 > 100 µM | SN12C > 100 µM | SNB-19 > 100 µM | SNB-75 > 100 µM | SW-620 > 100 µM | U-251 > 100 µM | UACC-257 > 100 µM

Oc1ccc2ccccc2c1OCc1nnc(CCCCCCCCc2nnc(COc3c(O)ccc4ccccc34)o2)o1
inactive: A549 > 100 µM | ACHN > 100 µM | CAKI-1 67 µM | M14 > 100 µM | MDA-MB-435 > 100 µM | MDA-N > 100 µM | Malme-3M > 100 µM | OVCAR-5 > 100 µM | PC-3 > 100 µM | RPMI-8226 > 100 µM | RXF 393 > 100 µM | SK-MEL-2 > 100 µM | SN12C > 100 µM | SNB-19 > 100 µM | SNB-75 > 100 µM | SW-620 > 100 µM | U-251 35.7 µM | UACC-257 > 100 µM

CCN1CCCc2cc3c(C(F)(F)F)cc(=O)oc3cc21
inactive: A549 > 100 µM | ACHN 87.9 µM | CAKI-1 50.8 µM | HOP-62 > 100 µM | M14 > 100 µM | MDA-MB-435 73.1 µM | MDA-N > 100 µM | OVCAR-5 > 100 µM | PC-3 20.7 µM | RXF 393 20.6 µM | SK-MEL-2 > 100 µM | SN12C 99.8 µM | SNB-19 > 100 µM | SNB-75 42.5 µM | SW-620 > 100 µM | U-251 > 100 µM | UACC-257 42.1 µM

NNC(=S)N/N=C(\C(=O)Nc1cccc(O)c1)C1C(=O)NC(=S)NC1=O
inactive: A549 > 100 µM | ACHN > 100 µM | CAKI-1 > 100 µM | HOP-62 > 100 µM | M14 > 100 µM | MDA-MB-435 > 100 µM | Malme-3M > 100 µM | OVCAR-5 > 100 µM | PC-3 > 100 µM | RPMI-8226 > 100 µM | RXF 393 > 100 µM | SK-MEL-2 > 100 µM | SN12C > 100 µM | SNB-19 > 100 µM | SNB-75 > 100 µM | SR > 100 µM | SW-620 > 100 µM | U-251 > 100 µM | UACC-257 > 100 µM

CC(=O)C(=CNc1c(C)n(C)n(-c2ccccc2)c1=O)C(C)=O
inactive: A549 > 100 µM | ACHN > 100 µM | CAKI-1 > 100 µM | M14 > 100 µM | MDA-MB-435 > 100 µM | Malme-3M > 100 µM | OVCAR-5 > 100 µM | PC-3 > 100 µM | RPMI-8226 > 100 µM | RXF 393 > 100 µM | SK-MEL-2 > 100 µM | SN12C > 100 µM | SNB-19 > 100 µM | SNB-75 > 100 µM | SR > 100 µM | SW-620 > 100 µM | U-251 > 100 µM | UACC-257 > 100 µM

CC(C)C1=CC2=C(C(=O)C1=O)C13CCCC(C)(C)C1CC2OC3=O (centres undefined)
inactive: A549 43.5 µM | ACHN 19.1 µM | CAKI-1 17.9 µM | M14 24 µM | MDA-MB-435 20.8 µM | MDA-N 17.9 µM | OVCAR-5 25.4 µM | PC-3 24.2 µM | RPMI-8226 8.18 µM | SK-MEL-2 21.7 µM | SN12C 21.4 µM | SNB-19 42.9 µM | SNB-75 25.7 µM | SW-620 14.5 µM | U-251 23 µM | UACC-257 23.9 µM

CC(C)[Si]1(C(C)C)OCC2OC(n3ccc(=O)[nH]c3=O)C(O)(CO)C2O[Si](C(C)C)(C(C)C)O1 (centres undefined)
inactive: A549 14.4 µM | ACHN 17.1 µM | CAKI-1 15.8 µM | HOP-62 19.4 µM | M14 19.1 µM | MDA-MB-435 17 µM | Malme-3M 15 µM | OVCAR-5 15.9 µM | PC-3 13 µM | RPMI-8226 9.82 µM | RXF 393 15.6 µM | SK-MEL-2 16.7 µM | SN12C 15.8 µM | SNB-19 15.3 µM | SR 12.9 µM | SW-620 17.1 µM | U-251 15.1 µM | UACC-257 15.3 µM
